Laboratory results taken from ChEMBL document CHEMBL1201862, “PubChem BioAssay data set” (2004).
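Five concentrations, 48 hours, 96-well plates. Here, GI50 denotes the concentration required for 50% inhibition of growth.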 The source made the active and inactive calls. Cut-off read from the data, not from the text of the source: active = GI50 up to about 1.1 µM and inactive = higher.

Columns and labels:
Test in all cases: DTP human tumour cell line panel, 48 h
SR = system: SR
UACC-62 = system: UACC-62
IGROV-1 = system: IGROV-1
UACC-257 = system: UACC-257
A549 = system: A549
MCF7 = system: MCF7
OVCAR-5 = system: OVCAR-5
NCI-H522 = system: NCI-H522
NCI/ADR-RES = system: NCI/ADR-RES
CCRF-CEM = system: CCRF-CEM
RPMI-8226 = system: RPMI-8226
MDA-MB-231 = system: MDA-MB-231
DU-145 = system: DU-145
HOP-62 = system: HOP-62
SNB-78 = system: SNB-78
SK-MEL-2 = system: SK-MEL-2
HCT-116 = system: HCT-116
SK-MEL-28 = system: SK-MEL-28
COLO 205 = system: COLO 205
UO-31 = system: UO-31
XF498 = system: XF498
KM-20L2 = system: KM-20L2
M14 = system: M14
NCI-H460 = system: NCI-H460
SF-295 = system: SF-295
OVCAR-3 = system: OVCAR-3
KM12 = system: KM12
DMS-114 = system: DMS-114
M19-MEL = system: M19-MEL
SW-620 = system: SW-620
OVCAR-4 = system: OVCAR-4
MDA-N = system: MDA-N
A498 = system: A498
HCT-15 = system: HCT-15
SNB-75 = system: SNB-75
PC-3 = system: PC-3
ACHN = system: ACHN
RXF 631 = system: RXF 631
HT-29 = system: HT-29
786-0 = system: 786-0
SK-OV-3 = system: SK-OV-3
NCI-H23 = system: NCI-H23
EKVX = system: EKVX
CAKI-1 = system: CAKI-1
SF-268 = system: SF-268
SN12C = system: SN12C
DMS-273 = system: DMS-273
HOP-18 = system: HOP-18
SK-MEL-5 = system: SK-MEL-5
SF-539 = system: SF-539
RXF 393 = system: RXF 393
LXFL 529 = system: LXFL 529
NCI-H226 = system: NCI-H226
BT-549 = system: BT-549
TK-10 = system: TK-10
SNB-19 = system: SNB-19
U-251 = system: U-251
T47D = system: T47D
MDA-MB-435 = system: MDA-MB-435
OVCAR-8 = system: OVCAR-8
Malme-3M = system: Malme-3M
Hs-578T = system: Hs-578T
HL-60 = system: HL-60
DLD-1 = system: DLD-1
K562 = system: K562
HOP-92 = system: HOP-92
HCC 2998 = system: HCC 2998
MOLT-4 = system: MOLT-4
LOX IMVI = system: LOX IMVI

## CCN(CC)CCn1ccc(=O)c2cc3c(=O)ccn(CCN(CC)CC)c3c(C)c21
SR
  GI50: 1.26 µM (inactive)
UACC-62
  GI50: 15.4 µM (inactive)
IGROV-1
  GI50: 7.28 µM (inactive)
UACC-257
  GI50: 16.7 µM (inactive)
A549
  GI50: 4.27 µM (inactive)
MCF7
  GI50: 20.8 µM (inactive)
OVCAR-5
  GI50: 14.1 µM (inactive)
NCI-H522
  GI50: 6.37 µM (inactive)
NCI/ADR-RES
  GI50: 1.41 µM (inactive)
CCRF-CEM
  GI50: 1.77 µM (inactive)
RPMI-8226
  GI50: 2.1 µM (inactive)
MDA-MB-231
  GI50: 5.27 µM (inactive)
DU-145
  GI50: 5.19 µM (inactive)
HOP-62
  GI50: 7.38 µM (inactive)
SNB-78
  GI50: 11.4 µM (inactive)
SK-MEL-2
  GI50: 11.6 µM (inactive)
HCT-116
  GI50: 1.82 µM (inactive)
SK-MEL-28
  GI50: 19.9 µM (inactive)
COLO 205
  GI50: 3.87 µM (inactive)
UO-31
  GI50: 5.07 µM (inactive)
XF498
  GI50: 8.95 µM (inactive)
KM-20L2
  GI50: 3.61 µM (inactive)
M14
  GI50: 9.38 µM (inactive)
NCI-H460
  GI50: 1.31 µM (inactive)
SF-295
  GI50: 4.47 µM (inactive)
OVCAR-3
  GI50: 8.55 µM (inactive)
KM12
  GI50: 0.993 µM (active)
DMS-114
  GI50: 13.8 µM (inactive)
M19-MEL
  GI50: 12.6 µM (inactive)
SW-620
  GI50: 1.53 µM (inactive)
OVCAR-4
  GI50: 2.02 µM (inactive)
MDA-N
  GI50: 5.57 µM (inactive)
A498
  GI50: 15.5 µM (inactive)
HCT-15
  GI50: 3.38 µM
SNB-75
  GI50: 9.91 µM (inactive)
PC-3
  GI50: 4.79 µM (inactive)
ACHN
  GI50: 4.02 µM (inactive)
RXF 631
  GI50: 5.74 µM (inactive)
HT-29
  GI50: 2.81 µM (inactive)
786-0
  GI50: 1.92 µM (inactive)
SK-OV-3
  GI50: 4.13 µM (inactive)
NCI-H23
  GI50: 6.75 µM (inactive)
EKVX
  GI50: 5.77 µM (inactive)
CAKI-1
  GI50: 7.4 µM (inactive)
SF-268
  GI50: 4.07 µM (inactive)
SN12C
  GI50: 5.65 µM (inactive)
DMS-273
  GI50: 3.58 µM (inactive)
HOP-18
  GI50: 6.82 µM (inactive)
SK-MEL-5
  GI50: 15.7 µM (inactive)
SF-539
  GI50: 11.2 µM (inactive)
RXF 393
  GI50: 4.56 µM (inactive)
LXFL 529
  GI50: 4.41 µM (inactive)
NCI-H226
  GI50: 10.9 µM (inactive)
BT-549
  GI50: 14.5 µM (inactive)
TK-10
  GI50: 7.43 µM (inactive)
SNB-19
  GI50: 5.15 µM (inactive)
U-251
  GI50: 5.89 µM (inactive)
T47D
  GI50: 25.1 µM (inactive)
MDA-MB-435
  GI50: 4.65 µM (inactive)
OVCAR-8
  GI50: 2.87 µM (inactive)
Malme-3M
  GI50: 15 µM (inactive)
Hs-578T
  GI50: 4.03 µM (inactive)
HL-60
  GI50: 1.42 µM (inactive)
DLD-1
  GI50: 1.65 µM (inactive)
K562
  GI50: 2.77 µM (inactive)
HOP-92
  GI50: 7.69 µM (inactive)
HCC 2998
  GI50: 1.44 µM (inactive)
MOLT-4
  GI50: 0.525 µM (active)
LOX IMVI
  GI50: 2.84 µM (inactive)

## Cc1csc2nc(-c3ccncc3)cn12
SR
  GI50: 24.3 µM (inactive)
UACC-62
  GI50: > 100 µM (inactive)
IGROV-1
  GI50: > 100 µM (inactive)
UACC-257
  GI50: > 100 µM (inactive)
A549
  GI50: > 100 µM (inactive)
OVCAR-5
  GI50: > 100 µM (inactive)
NCI-H522
  GI50: > 82.2 µM (inactive)
CCRF-CEM
  GI50: > 42.1 µM (inactive)
RPMI-8226
  GI50: > 45.1 µM (inactive)
HOP-62
  GI50: > 100 µM (inactive)
SNB-78
  GI50: > 100 µM (inactive)
SK-MEL-2
  GI50: > 100 µM (inactive)
HCT-116
  GI50: > 42.2 µM (inactive)
SK-MEL-28
  GI50: > 100 µM (inactive)
COLO 205
  GI50: > 45.5 µM (inactive)
UO-31
  GI50: > 100 µM (inactive)
XF498
  GI50: > 100 µM (inactive)
KM-20L2
  GI50: > 65 µM (inactive)
M14
  GI50: > 68.2 µM (inactive)
NCI-H460
  GI50: > 43.5 µM (inactive)
SF-295
  GI50: > 100 µM (inactive)
OVCAR-3
  GI50: > 100 µM (inactive)
KM12
  GI50: > 100 µM (inactive)
DMS-114
  GI50: > 42.1 µM (inactive)
M19-MEL
  GI50: > 59.6 µM (inactive)
SW-620
  GI50: > 21.1 µM (inactive)
OVCAR-4
  GI50: > 49.4 µM (inactive)
A498
  GI50: > 100 µM (inactive)
HCT-15
  GI50: > 40.9 µM
SNB-75
  GI50: > 100 µM (inactive)
ACHN
  GI50: > 100 µM (inactive)
RXF 631
  GI50: > 88.3 µM (inactive)
HT-29
  GI50: > 100 µM (inactive)
786-0
  GI50: 15.8 µM (inactive)
SK-OV-3
  GI50: > 100 µM (inactive)
NCI-H23
  GI50: > 100 µM (inactive)
EKVX
  GI50: > 59.7 µM (inactive)
CAKI-1
  GI50: > 100 µM (inactive)
SF-268
  GI50: > 69.7 µM (inactive)
SN12C
  GI50: > 100 µM (inactive)
DMS-273
  GI50: 19.7 µM (inactive)
HOP-18
  GI50: > 57.9 µM (inactive)
SK-MEL-5
  GI50: > 100 µM (inactive)
SF-539
  GI50: > 44 µM (inactive)
LXFL 529
  GI50: > 51.3 µM (inactive)
NCI-H226
  GI50: > 100 µM (inactive)
TK-10
  GI50: > 100 µM (inactive)
SNB-19
  GI50: > 100 µM (inactive)
U-251
  GI50: > 46.9 µM (inactive)
OVCAR-8
  GI50: > 100 µM (inactive)
Malme-3M
  GI50: > 100 µM (inactive)
HL-60
  GI50: > 36.3 µM (inactive)
DLD-1
  GI50: > 63.1 µM (inactive)
K562
  GI50: > 44 µM (inactive)
HOP-92
  GI50: > 100 µM (inactive)
HCC 2998
  GI50: > 100 µM (inactive)
MOLT-4
  GI50: > 100 µM (inactive)
LOX IMVI
  GI50: > 43.4 µM (inactive)

## COC(=O)CCSC(=O)Nc1ccc(/N=N/c2ccccc2)cc1
SR
  GI50: 30.6 µM (inactive)
UACC-62
  GI50: 34.4 µM (inactive)
IGROV-1
  GI50: 56.9 µM (inactive)
UACC-257
  GI50: 56.5 µM (inactive)
A549
  GI50: 76.4 µM (inactive)
OVCAR-5
  GI50: 71.1 µM (inactive)
CCRF-CEM
  GI50: 50.1 µM (inactive)
RPMI-8226
  GI50: 49.1 µM (inactive)
HOP-62
  GI50: > 100 µM (inactive)
SNB-78
  GI50: > 100 µM (inactive)
HCT-116
  GI50: 59.3 µM (inactive)
SK-MEL-28
  GI50: > 100 µM (inactive)
COLO 205
  GI50: 20.3 µM (inactive)
UO-31
  GI50: 51.3 µM (inactive)
XF498
  GI50: 37.5 µM (inactive)
KM-20L2
  GI50: 22.7 µM (inactive)
M14
  GI50: 70 µM (inactive)
NCI-H460
  GI50: 31.6 µM (inactive)
SF-295
  GI50: 47.9 µM (inactive)
OVCAR-3
  GI50: 29.5 µM (inactive)
KM12
  GI50: 31.1 µM (inactive)
DMS-114
  GI50: 53.7 µM (inactive)
M19-MEL
  GI50: 45.4 µM (inactive)
SW-620
  GI50: > 100 µM (inactive)
OVCAR-4
  GI50: 30.4 µM (inactive)
A498
  GI50: 29.5 µM (inactive)
HCT-15
  GI50: 36.1 µM
SNB-75
  GI50: 31 µM (inactive)
ACHN
  GI50: 29 µM (inactive)
RXF 631
  GI50: 67.3 µM (inactive)
HT-29
  GI50: 68.5 µM (inactive)
786-0
  GI50: 57.7 µM (inactive)
SK-OV-3
  GI50: > 100 µM (inactive)
NCI-H23
  GI50: 34.2 µM (inactive)
EKVX
  GI50: 39.5 µM (inactive)
CAKI-1
  GI50: 98.4 µM (inactive)
SF-268
  GI50: > 100 µM (inactive)
SN12C
  GI50: 69 µM (inactive)
DMS-273
  GI50: 62.7 µM (inactive)
HOP-18
  GI50: > 100 µM (inactive)
SK-MEL-5
  GI50: 51.9 µM (inactive)
SF-539
  GI50: > 100 µM (inactive)
RXF 393
  GI50: > 100 µM (inactive)
LXFL 529
  GI50: 36.6 µM (inactive)
NCI-H226
  GI50: 60.4 µM (inactive)
TK-10
  GI50: 61.8 µM (inactive)
SNB-19
  GI50: 32.1 µM (inactive)
U-251
  GI50: 37.5 µM (inactive)
OVCAR-8
  GI50: 45.8 µM (inactive)
Malme-3M
  GI50: > 100 µM (inactive)
DLD-1
  GI50: 52.5 µM (inactive)
K562
  GI50: 45.8 µM (inactive)
HOP-92
  GI50: 95.7 µM (inactive)
HCC 2998
  GI50: 23.6 µM (inactive)
MOLT-4
  GI50: 27.2 µM (inactive)
LOX IMVI
  GI50: 40.5 µM (inactive)
